Reference: ChEMBL document CHEMBL3044596, “Stagonolides G-I and modiolide A, nonenolides produced by Stagonospora cirsii, a potential mycoherbicide for Cirsium arvense” (J Nat Prod, 2008)
≈ marks a conversion by molar mass, not a printed value. Calls of active or inactive are those of the source. The rule behind the calls is not given here.

What was measured:
Cirsium arvense [1] = experiment: Herbicidal activity against Cirsium arvense (Canada thistle) assessed as induction of leaf necrosis at 1 mg/mL measured after 2 days post compound treatment by leaf disk-puncture bioassay; format: functional, organism-based
Cichorium intybus [2] = experiment: Phytotoxicity activity against Cichorium intybus (chicory) assessed as leaf necrotic lesion diameter at 1 mg/mL measured after 72 hr post compound treatment by leaf disk-puncture bioassay; format: organism-based; conditions: in vivo
Cirsium arvense [3] = experiment: Herbicidal activity against Cirsium arvense (Canada thistle) assessed as leaf necrotic lesion diameter at 1 mg/mL measured after 72 hr post compound treatment by leaf disk-puncture bioassay; format: functional
Elymus repens = experiment: Phytotoxicity activity against Elymus repens (couch grass) assessed as leaf necrotic lesion diameter at 1 mg/mL measured after 72 hr post compound treatment by leaf disk-puncture bioassay; format: organism-based; conditions: in vivo
Radish = experiment: Phytotoxicity activity against Raphanus sativus (radish) assessed as leaf necrotic lesion diameter at 1 mg/mL measured after 72 hr post compound treatment by leaf disk-puncture bioassay; format: organism-based; conditions: in vivo
Trifolium pratense = experiment: Phytotoxicity activity against Trifolium pratense (red clover) assessed as leaf necrotic lesion diameter at 1 mg/mL measured after 72 hr post compound treatment by leaf disk-puncture bioassay; format: organism-based; conditions: in vivo
Cichorium intybus [4] = experiment: Inhibition of root growth in Cichorium intybus (chicory) seedlings soaked in 1 mg/mL compound solutions for 1 hr relative to untreated control; format: functional
Cirsium arvense [5] = experiment: Herbicidal activity against Cirsium arvense (Canada thistle) assessed as induction of leaf necrosis measured after 2 days post compound treatment by leaf disk-puncture bioassay; format: functional; conditions: 48 h
Aegopodium podagraria = experiment: Phytotoxicity activity against Aegopodium podagraria (bishop's weed) assessed as leaf necrotic lesion diameter at 1 mg/mL measured after 72 hr post compound treatment by leaf disk-puncture bioassay; format: organism-based; conditions: in vivo
Solanum lycopersicum = experiment: Phytotoxicity activity against Solanum lycopersicum (tomato) assessed as leaf necrotic lesion diameter at 1 mg/mL measured after 72 hr post compound treatment by leaf disk-puncture bioassay; format: organism-based; conditions: in vivo
Zea mays = experiment: Phytotoxicity activity against Zea mays (maize) assessed as leaf necrotic lesion diameter at 1 mg/mL measured after 72 hr post compound treatment by leaf disk-puncture bioassay; format: organism-based; conditions: in vivo

C[C@@H]1C[C@H](O)/C=C/[C@@H](O)/C=C\C(=O)O1
Activity (Cirsium arvense [1]): inactive

C[C@@H]1OC(=O)/C=C\[C@@H](O)/C=C/[C@@H]2O[C@H]12 [Stagonolide H]
Activity (Cichorium intybus [2]): < 4 mm | Activity (Cirsium arvense [3]): 7.5 mm | Activity (Elymus repens): < 4 mm | Activity (Radish): < 4 mm | Activity (Trifolium pratense): < 4 mm | growth inhibition (GI) (Cichorium intybus [4]): 85% | MIC (Cirsium arvense [5]): 150 µM (≈ 29.4 µg/mL) | Activity (Cirsium arvense [1]): Active | Activity (Aegopodium podagraria): < 4 mm | Activity (Solanum lycopersicum): < 4 mm | Activity (Zea mays): < 4 mm

C[C@H]1OC(=O)CC[C@H](O)C/C=C\[C@H]1O
Activity (Cirsium arvense [1]): inactive

C[C@@H]1C[C@H](O)/C=C\[C@@H](O)/C=C\C(=O)O1
Activity (Cirsium arvense [1]): inactive
